In patent US20130065226A1, “METHOD OF DETERMINING DOSE AND ADMINISTRATION OF STATIN” (TOHOKU UNIVERSITY, priority 2011, published 2013):
Like-named read-outs stand apart in the source and are kept apart here. Where a SMILES comes first, the peptide text is derived from it. The star is where a group is joined. Cbz = O=C(OCc1ccccc1)*

Legend:
SmgGDS [1] = assay: SmgGDS expression in HUVEC after 24 h drug treatment (western blot); format: cell-based, human; settings: for inhibition of the statin-induced increase in SmgGDS expression level: FPP or GGPP 10 μM co-treated with atorvastatin or pitavastatin, 24 h; for SmgGDS expression level in HUVEC: 24 h treatment, atorvastatin 10 and 30 μM, pitavastatin 1 and 10 μM
Racl [2] = assay: Protein expression in HUVEC subcellular fractions: Racl (with or without proteasome inhibitor MG-132)
Racl [3] = assay: Racl expression in control or SmgGDS siRNA-transfected HUVEC; format: cell-based, human; settings: control siRNA-transfected HUVEC, statin 24 h
Protocol: (§1) An AngII-induced cardiovascular hypertrophy model in mice was produced according to Yagi et al.'s literature (Yagi, S. et al., Circ. Res. 102, 68-76 (2008)). Statins were administered to mice by gavage every day for 2 weeks. After 2 weeks of sustained AngII administration by means of osmotic pump, the present inventors observed the left ventricular function and measured the weight of the heart of each mouse by means of an ultrasound imaging system. […] After a 2 weeks washout period, the subjects were switched to take an alternative medicine for additional 2 weeks.
(§2) Multiple siRNAs duplexes specific to SmgGDS were purchased from Qiagen. A functional non-targeting siRNA that was bioinformatically designed by Qiagen was used as a control. Either 10 nM control siRNA or 10 nM siRNA that was specific to SmgGDS was transfected into HUVEC with HiPerFect transfection Reagent (Qiagen). After 72 hour post-transfection, the cells were analyzed by either Wester blot or ROS analysis.

RhoA/Rho-kinase = settings: normal and healthy volunteers, 20 mg day^−1 for 1 week; cited from earlier work
Racl [4] = settings: normal and healthy volunteers, 20 mg day^−1 for 1 week; cited from earlier work
[5] = test system: AngII-induced production of ROS in HUVEC; assay: Reactive oxygen species analysis (DCF staining) in siRNA-transfected HUVEC; format: cell-based, human; settings: atorvastatin 1 μM or pitavastatin 0.1 μM 24 h, then 1 μM AngII 3 h
Protocol: as §1, §2
The present inventors treated HUVEC with AngII (1μM, Wako) at 37° C. in 5% CO2 for 3 hours, washed them with PBS and stained them with 2,7-dichlorofluoroscein diacetate (H2DCF-DA) (5 μM, Cayman) at 37° C. for 30 minutes to visualize the ROS production as green fluorescence (488 nm) through a fluorescence microscope (BIOREVO, Keyence). The relative fluorescence intensity was measured by means of BZ-II analyzer (Keyence) software.

SmgGDS [6] = assay: Human study: SmgGDS expression in circulating leukocytes (western blot); format: in vivo; settings: for increase of SmgGDS in leukocytes, average of the 20 volunteers: 20 mg, 2 weeks, vs before administration
Text: (§3) The exclusion criteria included abnormal liver or kidney dysfunction before and during the statin administration and treatment.

[7] = Human study: plasma lipid profiles, glucose, insulin and HOMA-IR; format: in vivo; settings: for HDL-cholesterol, Change (%) / LDL-cholesterol, Change (%) / MDA-LDL, Change (%) / RLP cholesterol, Change (%) / Total cholesterol, Change (%) / Triglyceride, Change (%) / HDL-cholesterol, After 2 weeks / LDL-cholesterol, After 2 weeks / MDA-LDL, After 2 weeks / RLP cholesterol, After 2 weeks / Triglyceride, After 2 weeks / Total cholesterol, After 2 weeks: healthy volunteers; for HDL-cholesterol, Change (%) / LDL-cholesterol, Change (%) / MDA-LDL, Change (%) / RLP cholesterol, Change (%) / Total cholesterol, Change (%) / Triglyceride, Change (%): 20 mg day^−1, after 2 weeks vs baseline; for HDL-cholesterol, After 2 weeks / LDL-cholesterol, After 2 weeks / MDA-LDL, After 2 weeks / RLP cholesterol, After 2 weeks / Triglyceride, After 2 weeks / Total cholesterol, After 2 weeks: fasting; for Total cholesterol, After 2 weeks: mean ± s.e.m., n = 20
Text: as §3

[8] = Body weight, blood pressure and plasma lipid profiles in AngII-infused mice; format: in vivo; settings: ATOR 10 mpk, PRA 50 mpk; for Systolic blood pressure / HDL cholesterol / LDL-cholesterol / Total cholesterol / Triglyceride: 2 weeks; for Systolic blood pressure / Body weight: mean ± s.e.m.; for Body weight: gavage daily 2 weeks; for HDL cholesterol / LDL-cholesterol / Total cholesterol / Triglyceride: plasma
Protocol: as §1
The present inventors conducted all mouse experiments in accordance with experimental protocols that were approved by the Animal Care and Use Committee of the Tohoku University Graduate School of Medicine. The present inventors used an AngII-induced cardiovascular hypertrophy model (see Yagi, S . et al . , Circ. Res. 102. 68-76 (2008)) to assess the effect of SmgGDS deficiency on the pleiotropic effects of low-dose statins. The present inventors infused 2.0 mg kg^−1 day^−1 or saline for 2 weeks in 10-week-old male SmgGDS^+/+ littermate control mice and SmgGDS^+/− mice. The inventors dissolved AngII in sterile saline and infused it via osmotic mini-pumps (Alzet model 2002, Alze Corp.). The inventors anesthetized the animals with isofluorane. Then, the inventors prepared subcutaneous pockets in the isofluorane-anesthetized mice and placed the pumps into the subcutaneous pockets through a small incision in the back that was closed by suturing. Either statin or vehicle was administered to both the AngII-infused and saline-infused mouse by gavage every day for 2 weeks . All incision sites rapidly healed without any infection. Systolic blood pressure was measured by using a non-invasive tail-cuff system (MK-2000, Muromachi) 2 weeks after the pump implantation. Plasma lipids (triglycerides, total cholesterol, LDL-cholesterol and HDL-cholesterol) were analyzed with the high-performance liquid chromatography system of Skylight Biotech. Echocardiographic analysis was performed by using an ultrasound imaging system (Vevo 2100, VisualSonic Inc.). The mice were shaved and M-mode images of the left ventricle were recorded while the heart rate was kept at about 500 bpm.

SmgGDS [9] = assay: Protein expression in HUVEC subcellular fractions: SmgGDS; format: cell-based, human; settings: HUVEC cytoplasm fraction, 24 h; atorvastatin 10 μM, pitavastatin 1 μM
[10] = Plasma concentration of statins in mice; format: in vivo; settings: male, mouse, oral, 24 hours after last of 2-week gavage, atorvastatin 10 mg/kg/day, pravastatin 50 mg/kg/day, read-out: Plasma concentration of statin
Protocol: Furthermore, the present inventors administrated each statin by gavage for 2 weeks from the start of AngII administration ([…], 10 mg/kg/day or pravastatin, 50 mg/kg/day) to the each group of mouse. The present inventors measured plasma concentration of statins 24 hours after the last administration (Table 3).

[11] = control siRNA-transfected HUVEC

## CC(C)=CCC/C(C)=C/CC/C(C)=C/COP(=O)(O)OP(=O)(O)O [FPP, farnesyl pyrophosphate]
SmgGDS [1]
  inhibition of the statin-induced increase in SmgGDS expression level: neither FPP nor GGPP inhibited the increase in SmgGDS expression level by statins

## CC(C)=CCC/C(C)=C/CC/C(C)=C/CC/C(C)=C/COP(=O)(O)OP(=O)(O)O [GGPP, geranylgeranyl pyrophosphate]
SmgGDS [1]
  inhibition of the statin-induced increase in SmgGDS expression level: neither FPP nor GGPP inhibited the increase in SmgGDS expression level by statins

## O=c1[nH]ccc2c(S(=O)(=O)N3CCCNCC3)cccc12 [HF, hydroxyfasudil]
SmgGDS [1]
  SmgGDS expression level in HUVEC: did not increase the SmgGDS expression level

## CC(C)C[C@@H](C=O)NC(=O)[C@H](CC(C)C)NC(=O)[C@H](CC(C)C)NC(=O)OCc1ccccc1 [MG-132] (Cbz-Leu-Leu-Leu-aldehyde)
Racl [2]; HUVEC co-treated with atorvastatin and MG-132
  effect of MG-132 on statin-triggered decrease of Racl expression in the nucleus: inhibited the decreased Racl expression level triggered by atorvastatin in the nucleus

## Cn1cc(C2=C(c3ccc(Cl)cc3Cl)C(=O)NC2=O)c2ccccc21 [SB216763]
SmgGDS [1]
  SmgGDS expression level in HUVEC: increased the SmgGDS expression level in a concentration-dependent manner

## CC(C)c1c(C(=O)Nc2ccccc2)c(-c2ccccc2)c(-c2ccc(F)cc2)n1CC[C@@H](O)C[C@@H](O)CC(=O)O [atorvastatin]
Racl [3]
  Racl expression level in whole cells: decreased Racl expression level in whole cells
RhoA/Rho-kinase
  RhoA/Rho-kinase activity in circulating leucocytes: without suppressing the RhoA/Rho-kinase activity
Racl [4]
  Racl activity in circulating leucocytes: significantly inhibit Racl activity
[5]; [11]
  AngII-induced production of ROS: decreased the AngII-induced production of ROS
SmgGDS [1]
  SmgGDS expression level in HUVEC: increased SmgGDS expression in HUVEC in a concentration-dependent manner
SmgGDS [6]; healthy volunteers, 20 mg day^−1, 2 weeks, vs pre-administration level, n=20
  SmgGDS expression in leukocytes in circulating blood: significantly increased
SmgGDS [6]; healthy volunteers
  increase of SmgGDS in leukocytes, average of the 20 volunteers: about 1.5 times
SmgGDS [6]; the 4 volunteers without increase at 10 mg pravastatin, after switching from pravastatin to atorvastatin
  increase in SmgGDS: 3 volunteers out of the above 4 volunteers showed an increase of SmgGDS
[7]
  HDL-cholesterol, Change (%): 0%
  LDL-cholesterol, Change (%): −46%
  MDA-LDL, Change (%): −38%
  RLP cholesterol, Change (%): −35%
  Total cholesterol, Change (%): −30%
  Triglyceride, Change (%): −33%
[7]; 20 mg day^−1 oral, 2 weeks
  HDL-cholesterol, After 2 weeks: 60 ± 2.7 mg/dL
  LDL-cholesterol, After 2 weeks: 64 ± 3.4 mg/dL
  MDA-LDL, After 2 weeks: 73 ± 4.5 U l^−1
  RLP cholesterol, After 2 weeks: 2.6 ± 0.1 mg/dL
  Triglyceride, After 2 weeks: 73 ± 6.5 mg/dL
  Total cholesterol, After 2 weeks: 138 ± 3.8 mg/dL
[7]; normal healthy adult volunteers, 20 mg day^−1 oral, 2 weeks
  concentration level of total cholesterol and of LDL-cholesterol in blood: reduced the concentration level of total cholesterol and that of LDL-cholesterol in blood
[8]; AngII-infused SmgGDS+/+ mice
  Systolic blood pressure: 146.7 ± 7.6 mmHg
  Body weight: 27.5 ± 1.1 g
  HDL cholesterol: 76.3 ± 6.8 mg/dL
  LDL-cholesterol: 13.7 ± 1.6 mg/dL
  Total cholesterol: 98.3 ± 7.7 mg/dL
  Triglyceride: 67.0 ± 11.0 mg/dL
[8]; AngII-infused SmgGDS+/− mice
  Systolic blood pressure: 140.4 ± 4.4 mmHg
  Body weight: 26.9 ± 0.5 g
  HDL cholesterol: 81.9 ± 4.8 mg/dL
  LDL-cholesterol: 13.6 ± 1.8 mg/dL
  Total cholesterol: 102.3 ± 6.9 mg/dL
  Triglyceride: 81.4 ± 20.1 mg/dL
SmgGDS [9]
  cytoplasmic SmgGDS level: increased the cytoplasmic SmgGDS level

## O=C(O)C[C@H](O)C[C@H](O)/C=C/c1c(C2CC2)nc2ccccc2c1-c1ccc(F)cc1 [pitavastatin]
[5]; SmgGDS siRNA-transfected HUVEC
  AngII-induced production of ROS: The same results were also obtained
[5]; [11]
  AngII-induced production of ROS: The same results were also obtained
SmgGDS [1]
  SmgGDS expression level in HUVEC: increased SmgGDS expression in HUVEC in a concentration-dependent manner
Racl [2]; HUVEC nucleus fraction, 24 h, atorvastatin 10 μM, pitavastatin 1 μM
  intra-nuclear Racl level: decreased the intra-nuclear Racl level
SmgGDS [9]
  cytoplasmic SmgGDS level: increased the cytoplasmic SmgGDS level

## CC[C@H](C)C(=O)O[C@H]1C[C@H](O)C=C2C=C[C@H](C)[C@H](CC[C@@H](O)C[C@@H](O)CC(=O)O)[C@H]21 [pravastatin]
[10]; AngII-infused SmgGDS+/+ mice
  concentration at 24 h: 0.43 ± 0.08 ng/mL
[10]; AngII-infused SmgGDS+/− mice
  concentration at 24 h: 0.64 ± 0.24 ng/mL
SmgGDS [6]; healthy volunteers
  increase of SmgGDS in leukocytes, average of the 20 volunteers: about 1.4 times
[7]
  HDL-cholesterol, Change (%): 5%
  LDL-cholesterol, Change (%): −24%
  MDA-LDL, Change (%): −25%
  RLP cholesterol, Change (%): −22%
  Total cholesterol, Change (%): −14%
  Triglyceride, Change (%): −16%
[7]; 20 mg day^−1 oral, 2 weeks
  HDL-cholesterol, After 2 weeks: 61 ± 2.8 mg/dL
  LDL-cholesterol, After 2 weeks: 88 ± 4.0 mg/dL
  MDA-LDL, After 2 weeks: 85 ± 6.7 U l^−1
  RLP cholesterol, After 2 weeks: 3.2 ± 0.3 mg/dL
  Triglyceride, After 2 weeks: 87 ± 9.1 mg/dL
  Total cholesterol, After 2 weeks: 165 ± 4.5 mg/dL
[8]; AngII-infused SmgGDS+/+ mice
  Systolic blood pressure: 141.0 ± 7.3 mmHg
  HDL cholesterol: 88.0 ± 4.5 mg/dL
  LDL-cholesterol: 16.1 ± 2.3 mg/dL
  Total cholesterol: 111.2 ± 6.8 mg/dL
  Triglyceride: 47.3 ± 10.9 mg/dL
[8]; AngII-infused SmgGDS+/− mice
  Systolic blood pressure: 146.7 ± 6.6 mmHg
  HDL cholesterol: 94.0 ± 4.1 mg/dL
  LDL-cholesterol: 16.1 ± 1.6 mg/dL
  Total cholesterol: 116.7 ± 5.7 mg/dL
  Triglyceride: 56.6 ± 7.3 mg/dL
